According to paper PMC11942279, “Multiple Inhibitory Mechanisms of DS16570511 Targeting Mitochondrial Calcium Uptake: Insights from Biochemical Analysis of Rat Liver Mitochondria” (International Journal of Molecular Sciences, 2025):

Tests used:
[1] = molecular target: T1, respiratory chain complex II (Rattus norvegicus, UniProt P21913+Q641Z9+Q6PCT8+Q920L2); assay: Mitochondrial oxygen consumption with succinate as respiratory substrate; format: biochemical
T1 construct: from tissue; host or cells: rat liver mitochondria (male Wistar rats)
Experimental: Figure 5 Effect of DS16570511 on oxygen consumption in the presence of succinate. (a) Mitochondria (Mt), 10 mM succinate, and 0.1 µM SF6847 were added to Pi medium containing the indicated concentrations of DS16570511 or antimycin at the time points marked by arrows. Changes in dissolved oxygen concentration in the reaction medium were measured, and representative traces are shown. “natomsO” denotes the nanomoles of oxygen atoms in the reaction medium. (b) The degree of inhibition was calculated from the rate of oxygen consumption over a 3 min period, measured 30 s after SF6847 addition. […] Data are presented as the mean ± standard deviation of independent experiments (n = 3).
(§1) Livers were harvested from 6- to 18-week-old male Wistar rats (Japan SLC, Shizuoka, Japan), and mitochondria were isolated as previously described. All animal experiments complied with the University of Tokushima Guidelines for the Care and Use of Laboratory Animals (approval number: T28-29). Mitochondrial protein concentrations were measured using the Biuret method with bovine serum albumin as the standard in the presence of 1% SDS.
When electrons were supplied via respiratory chain complex I, 5 mM glutamate and 5 mM malate were used as respiratory substrates. For electrons supplied via respiratory chain complex II, 0.68 µg/mL rotenone was added beforehand to inhibit electron transfer from endogenous respiratory chain complex I, and 10 mM succinate was used as the respiratory substrate.

rat liver mitochondria = assay: Comparison with uncouplers on mitochondrial oxygen consumption; format: biochemical; details: 10 mM succinate, DS16570511 50 or 200 µM
Experimental: Figure 4 Comparison of the effects of DS16570511 and uncouplers on mitochondrial oxygen consumption. Mitochondria (Mt), 10 mM succinate (Succ), and each compound (50 or 200 µM DS16570511 [DS], SF6847 [SF], or alamethicin [Ala]) were added to Pi medium at the time points indicated by arrows. Changes in the concentration of dissolved oxygen in the reaction medium were measured using an oxygen electrode. Representative traces are shown. “natomsO” denotes the nanomoles of oxygen atoms in the reaction medium.
The rate of mitochondrial oxygen consumption was measured using a Clark-type oxygen electrode (YSI5331, Yellow Springs Instrument Co., Ltd., Yellow Springs, OH, USA) at 25 °C in 2.2 mL of Pi medium preincubated with 2.5 µM CsA. When electrons were supplied via respiratory chain complex I, 5 mM glutamate and 5 mM malate were used as respiratory substrates. For electrons supplied via respiratory chain complex II, 0.68 µg/mL rotenone was added beforehand to inhibit electron transfer from endogenous respiratory chain complex I, and 10 mM succinate was used as the respiratory substrate. The degree of inhibition and IC50 values of DS16570511 were calculated based on the oxygen consumption rate over a 3 min period, starting 30 s after the addition of SF6847.

[2] = tested on: mitochondrial Ca2+ uptake in rat liver mitochondria; assay: Mitochondrial Ca2+ uptake assay (succinate-energized, Fluo-5); format: biochemical; details: 10 mM succinate, Ca2+ uptake rate during first 30 s after adding mitochondria, read-out: IC50 for inhibition of mitochondrial Ca2+ uptake
Experimental: Figure 2 Effect of DS16570511 on mitochondrial Ca^2+ uptake activity in rat liver mitochondria. (a) Mitochondrial Ca^2+ uptake activity was measured in isolated rat liver mitochondria. Mitochondria were added to Pi medium containing the indicated concentrations of DS16570511 or ruthenium 360, and changes in extramitochondrial Ca^2+ concentration over time were analyzed based on Fluo-5 fluorescence intensity. Representative traces are shown. (b) The degree of inhibition was calculated from the Ca^2+ uptake rate during the first 30 s after adding mitochondria. Data are expressed as 0% inhibition in the absence of DS16570511 (none) and 100% inhibition in the presence of ruthenium 360. […]
(§2) Livers were harvested from 6- to 18-week-old male Wistar rats (Japan SLC, Shizuoka, Japan), and mitochondria were isolated as previously described. […] Mitochondrial protein concentrations were measured using the Biuret method with bovine serum albumin as the standard in the presence of 1% SDS.
Fluo-5 (1 µM) was used as a Ca^2+-sensitive fluorescence indicator in 1 mL of Pi medium (250 mM sucrose, 10 mM Tris-MOPS, 10 µM EGTA-Tris, 0.5 mg/mL bovine serum albumin, and 10 mM KPi, pH 7.4). Fluorescence intensity was measured using an F-2700 spectrofluorometer (HITACHI, Tokyo, Japan) with excitation and emission wavelengths of 494 and 516, respectively. […]

FoF1-ATPase/ANT = assay: Mitochondrial FoF1-ATPase activity (pH electrode); format: biochemical; details: rat liver mitochondria, 1 mM ATP, antimycin, pH change over 3 min; read-out: IC50 for inhibition of FoF1-ATPase/ANT activity (pH decrease)
Experimental: Figure 7 Effect of DS16570511 on mitochondrial FoF1-ATPase activity. (a) Schematic representation of mitochondrial FoF1-ATPase activity: ATP enters the matrix via ANT and is hydrolyzed to ADP by FoF1-ATPase, driving proton extrusion from the matrix and decreasing the reaction medium pH. […] (b) Mitochondria were added to the incubation medium containing the indicated concentrations of DS16570511 or oligomycin, and pH changes in the medium were measured using a pH electrode. Representative traces are shown. (c) Inhibition was calculated from the pH change over a 3 min period, starting 30 s after adding mitochondria. Results are expressed as 0% inhibition in the absence of DS16570511 and 100% inhibition with oligomycin. Data are presented as the mean ± standard deviation of independent experiments (n = 3).
as §1
Mitochondrial FoF1-ATPase activity was measured using a modified version of the classical pH electrode-based method. […]

[3] = tested on: membrane potential in rat liver mitochondria; assay: Measurement of mitochondrial membrane potential formation (DiSC3(5)); format: biochemical; details: 10 mM succinate, first 5 s after succinate addition, read-out: IC50 for inhibition of membrane potential formation
Experimental: Figure 3 Effect of DS16570511 on membrane potential in rat liver mitochondria. (a) Rat liver mitochondria were incubated in Pi medium containing the indicated concentrations of DS16570511 or antimycin. At the time points indicated by arrows, 10 mM succinate was added as a respiratory substrate, and membrane potential was measured using 3 µM DiSC3(5) as a probe. Representative traces are shown. (b) The degree of inhibition was calculated from the rate of membrane potential formation during the first 5 s after succinate addition, with 0% inhibition in the absence of DS16570511 (none) and 100% inhibition in the presence of SF6847. […]
as §2
DiSC3(5) (3 µM) was used as a fluorescent probe to measure mitochondrial membrane potential in 2.2 mL of Pi medium. Fluorescence intensity was measured using an F-2700 spectrofluorometer (HITACHI, Tokyo, Japan) with excitation and emission wavelengths of 643 and 666 nm, respectively. Fluorescence intensity was recorded after adding 10 mM succinate to Pi medium containing 2.5 µM CsA, 0.68 µg/mL rotenone, 0.42 mg protein/mL mitochondria, and DS16570511. […]

[4] = tested on: respiratory chain complexes I–III–IV; assay: Mitochondrial oxygen consumption with glutamate and malate as respiratory substrates; format: biochemical; details: rat liver mitochondria, 5 mM glutamate, 5 mM malate, 0.1 µM SF6847; read-out: IC50 for inhibition of oxygen consumption (glutamate and malate; respiratory chain complexes I–III–IV)
Experimental: Figure 6 Effect of DS16570511 on oxygen consumption in the presence of glutamate and malate. (a) Mitochondria (Mt), 5 mM glutamate, 5 mM malate, and 0.1 µM SF6847 were added to Pi medium containing the indicated concentrations of DS16570511 or antimycin at the time points marked by arrows. Changes in dissolved oxygen concentration in the reaction medium were measured, and representative traces are shown. “natomsO” denotes the nanomoles of oxygen atoms in the reaction medium. (b) The degree of inhibition was calculated from the rate of oxygen consumption over a 3 min period, measured 30 s after SF6847 addition. Results are expressed as 0% inhibition in the absence of DS16570511 (none) and 100% inhibition with antimycin. Data are presented as the mean ± standard deviation of independent experiments (n = 3).
as §2
The rate of mitochondrial oxygen consumption was measured using a Clark-type oxygen electrode (YSI5331, Yellow Springs Instrument Co., Ltd., Yellow Springs, OH, USA) at 25 °C in 2.2 mL of Pi medium preincubated with 2.5 µM CsA. […]

Ca2+ uptake = details: read-out: IC50 for inhibition of Ca2+ uptake; cited from earlier work
mice = tested on: mice; design: method as in PMID 32126877, PMID 38779706; details: cited from earlier work
[5] = rat liver mitochondria, succinate

T1 sequence (Q920L2 35-656): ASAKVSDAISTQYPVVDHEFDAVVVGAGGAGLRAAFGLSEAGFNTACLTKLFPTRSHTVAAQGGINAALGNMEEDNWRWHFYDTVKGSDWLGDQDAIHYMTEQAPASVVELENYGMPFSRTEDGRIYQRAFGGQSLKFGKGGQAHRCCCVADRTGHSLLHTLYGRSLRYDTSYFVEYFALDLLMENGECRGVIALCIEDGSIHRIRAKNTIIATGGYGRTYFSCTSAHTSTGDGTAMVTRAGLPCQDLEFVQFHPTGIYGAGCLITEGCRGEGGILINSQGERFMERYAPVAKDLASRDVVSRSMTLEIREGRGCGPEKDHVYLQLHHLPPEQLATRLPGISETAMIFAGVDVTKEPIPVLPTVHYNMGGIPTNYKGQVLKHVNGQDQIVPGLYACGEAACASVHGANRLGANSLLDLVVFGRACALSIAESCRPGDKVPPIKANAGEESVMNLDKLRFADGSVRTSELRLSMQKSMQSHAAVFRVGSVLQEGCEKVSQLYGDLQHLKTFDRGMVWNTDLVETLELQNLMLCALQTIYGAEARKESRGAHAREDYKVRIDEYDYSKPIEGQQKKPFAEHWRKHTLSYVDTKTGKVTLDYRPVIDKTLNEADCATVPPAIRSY
T1 sequence (P21913 31-282): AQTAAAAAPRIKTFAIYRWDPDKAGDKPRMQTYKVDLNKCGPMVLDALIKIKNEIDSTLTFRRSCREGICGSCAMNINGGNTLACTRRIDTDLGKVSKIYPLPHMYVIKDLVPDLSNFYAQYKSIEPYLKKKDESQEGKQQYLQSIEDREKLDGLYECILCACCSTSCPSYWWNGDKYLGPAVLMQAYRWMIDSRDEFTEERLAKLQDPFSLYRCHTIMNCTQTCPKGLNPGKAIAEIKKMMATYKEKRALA
T1 sequence (Q641Z9 30-169 limits assumed): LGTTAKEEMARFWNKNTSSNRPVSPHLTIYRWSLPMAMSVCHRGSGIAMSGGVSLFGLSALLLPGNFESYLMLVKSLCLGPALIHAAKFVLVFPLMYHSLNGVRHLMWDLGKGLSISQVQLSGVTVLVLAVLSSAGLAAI
T1 sequence (Q6PCT8 57-159): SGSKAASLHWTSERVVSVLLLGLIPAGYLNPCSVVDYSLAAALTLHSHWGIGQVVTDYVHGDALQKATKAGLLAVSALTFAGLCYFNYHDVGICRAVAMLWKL

For CCOC(=O)CCCn1cc(C(=O)c2cccc(NCc3c(-c4c(Cl)cccc4Cl)noc3C)c2)c2ccccc21 [Compound 2], the “Inhibitory activity on oxygen consumption via respiratory chain complex II (in words)” value [1, 5] was “completely lacked inhibitory activity”.
Cc1onc(-c2c(Cl)cccc2Cl)c1/C=N/c1cccc(C(=O)c2cn(CCCC(=O)O)c3ccccc23)c1 [Compound 3] gave an IC50 [1] of 52.7 µM.
For CCOC(=O)CCCn1cc(C(=O)c2cccc(/N=C/c3c(-c4c(Cl)cccc4Cl)noc3C)c2)c2ccccc21 [Compound 4], the “Inhibitory activity on oxygen consumption via respiratory chain complex II (in words)” value [1, 5] was “completely lacked inhibitory activity”.
For Cc1onc(-c2c(Cl)cccc2Cl)c1CNc1cccc(C(=O)c2cn(CCCC(=O)O)c3ccccc23)c1 [DS16570511], the “Effect on mitochondrial oxygen consumption (uncoupling test, in words)” value (from here on “Effect … (uncoupling test, in words)”) (rat liver mitochondria) was “reduced the rate of oxygen consumption”, the IC50 [2] was 9.2 µM and the IC50 (FoF1-ATPase/ANT) was 97.2 µM. It also gave an IC50 [3] of 10.8 µM, an IC50 [4] of 40.9 µM and an IC50 [1] of 9.5 µM. For the same molecule, the “Inhibition of oxygen consumption at a single concentration (in words)” value ([1]; 200 µM, rat liver mitochondria, succinate, SF6847) was “inhibited oxygen consumption to the same extent as antimycin”.
In the case of N.N.N.N.N.N.N.N.O=CO.O=CO.[O-2].[Ru+3].[Ru+4] [Ruthenium 360], the IC50 (Ca2+ uptake) is given as 0.000184 µM.
In the case of CC(C)(C)c1cc(C=C(C#N)C#N)cc(C(C)(C)C)c1O [SF6847], the “Effect … (uncoupling test, in words)” value (rat liver mitochondria) is reported as “markedly increased oxygen consumption”.
For N.N.N.N.N.N.N.N.[Cl][Ru+3].[N-]=[Ru][Cl] [ruthenium 265], the “Adverse effect after intraperitoneal administration” value (mice) is listed as “caused seizure-like movements”.
With alamethicin the “Effect … (uncoupling test, in words)” value (rat liver mitochondria) was “markedly increased oxygen consumption”.
